Data on 1 compound can be found in patent publication US7179836B2, “Chemical compounds” (SmithKline Beecham Corporation, priority 2001, dated 2007).

pIC50: −log10 of the molar value. A value given as a limit tells only on which side of the number the result lay.

The assay concerns the target Recombinant GST-Tie2 (Homo sapiens, UniProt Q02763). The assay can be described thus: Tie2 fluorescence polarization kinase activity assay (TIE2-FP). It is filed as biochemical. To be noted: 200 μM ATP, 1 nM activated enzyme, 200 μM peptide. The protocol:
Tie2 Fluorescence Polarization Kinase Activity Assay (TIE2-FP).
Activation of Recombinant Tie2 Activation:
Recombinant GST-Tie2 is activated by incubating the enzyme in 20 mM Tris-HCl, pH 7.5, 12 mM MgCl2, 100 mM NaCl, 20 μM sodium vanidate, 1 mM DTT and 300 μM ATP at room temperature for 2 hours. The activation mixture is then passed through a NAP-25 desalting column (Pharmacia Biotech cat. no. 17-0852-02) to remove the free ATP. The activated enzyme is stored as aliquots at −80° C. in 20 mM Tris-HCl, pH 7.5 and 100 mM NaCl.
The final assay conditions are 50 mM HEPES, pH 7.5, 5% DMSO (when screening compounds), 200 μM ATP, 5 mM MgCl2, 1 mM DTT, 50 μM sodium vanidate, 1 nM activated enzyme, and 200 μM peptide. IC50's of compounds are measured under subsaturating ATP (200 μM) and varing concentrations of activated Tie2 and peptide substrate (RFWKYEFWR-OH; MW 1873 Da, TFA salt). Panvera Anti-phosphotyrosine antibody (Cat#P2840) and PTK Green Tracer (Cat#P2842) are used to detect the phosphorylated peptide. Polarization is measured on a TECAN Polarion in 138-second cycles for 30 minutes at room temperature. IC50's are then determined from the % polarization using normal calculation methods.

Recombinant GST-Tie2, sequence (Q02763 23-1124): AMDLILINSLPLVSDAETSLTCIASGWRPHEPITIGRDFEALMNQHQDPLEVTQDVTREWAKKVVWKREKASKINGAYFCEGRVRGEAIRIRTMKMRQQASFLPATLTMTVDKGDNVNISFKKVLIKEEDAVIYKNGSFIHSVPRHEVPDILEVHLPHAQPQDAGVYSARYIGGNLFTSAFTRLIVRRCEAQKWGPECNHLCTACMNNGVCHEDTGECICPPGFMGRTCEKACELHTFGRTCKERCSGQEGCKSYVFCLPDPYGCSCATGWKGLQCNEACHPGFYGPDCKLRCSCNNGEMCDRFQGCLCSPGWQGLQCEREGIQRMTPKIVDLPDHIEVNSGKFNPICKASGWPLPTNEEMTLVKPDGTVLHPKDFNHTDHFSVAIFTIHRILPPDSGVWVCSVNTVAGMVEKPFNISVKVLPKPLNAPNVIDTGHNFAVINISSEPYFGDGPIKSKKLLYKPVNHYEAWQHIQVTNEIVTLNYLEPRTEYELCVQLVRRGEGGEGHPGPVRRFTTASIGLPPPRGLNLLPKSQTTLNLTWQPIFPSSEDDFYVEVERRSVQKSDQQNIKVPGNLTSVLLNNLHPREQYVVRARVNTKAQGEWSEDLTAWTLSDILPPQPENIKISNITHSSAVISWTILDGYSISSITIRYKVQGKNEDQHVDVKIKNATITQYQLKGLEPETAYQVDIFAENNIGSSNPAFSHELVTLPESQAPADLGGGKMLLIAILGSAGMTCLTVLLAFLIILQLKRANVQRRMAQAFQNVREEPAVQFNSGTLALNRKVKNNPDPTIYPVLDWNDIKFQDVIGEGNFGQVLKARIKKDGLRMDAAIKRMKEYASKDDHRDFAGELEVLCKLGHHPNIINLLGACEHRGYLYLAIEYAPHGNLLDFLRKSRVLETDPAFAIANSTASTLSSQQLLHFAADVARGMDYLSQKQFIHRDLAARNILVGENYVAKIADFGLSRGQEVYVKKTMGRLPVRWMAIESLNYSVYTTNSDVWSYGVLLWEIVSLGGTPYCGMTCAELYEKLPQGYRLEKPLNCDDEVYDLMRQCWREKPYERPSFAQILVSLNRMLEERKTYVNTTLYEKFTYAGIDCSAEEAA

By pIC50 is commonly meant −log10 of the IC50, conventionally taken in molar units. As to `NC(=O)c1c(-c2ccc(NC(=O)Nc3cc(C(F)(F)F)ccc3F)cc2)csc1N` [Example 1, 2-Amino-4-{4-[3-(2-fluoro-5-trifluoromethyl-phenyl)-ureido]-phenyl}-thiophene-3-carboxylic acid amide], the pIC50 is greater than 7.00.
